The source of these data is the supplement of paper PMC8837787.

This assay relates to Saccharomyces cerevisiae ABC16-Green Monster. Kind of assay: growth inhibition at single dose (up to 150 µM), below the 70% cut-off for dose-response; higher = more potent. The note with it: 18 h; 30 °C; YPD. The essentials:
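Drug-sensitive S. cerevisiae ABC16-Green Monster cells were grown overnight in YPD at 30 °C and diluted to log phase (OD600 0.1–0.2). Each library compound was added at one dose of 150 µM to 200 µl culture per well in 96-well plates, in biological duplicates, with untreated cultures alongside. OD600 was read at 0 h and after 18 h at 30 °C. The value is percent growth inhibition; compounds below 70% in both replicates were not taken to dose-response.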

The structures appear in SMILES notation.

For `CCc1cc(=O)n(C)c(SC(C)C(=O)Nc2ccc(F)cc2)n1` (configuration not stated), the “growth inhibition at single dose” value is < 70%. Under `CCOC(=O)c1c[nH]c2cc(Cl)cc(Cl)c2c1=O` stands < 70%; under `CC(C)NC(=O)NCc1ccc(C(=O)OCC(=O)C(C#N)=C2Nc3ccccc3N2)cc1`, < 70%. With `CC(=O)c1cc2c(N)c(-c3nc(C(C)(C)C)no3)sc2nc1C` the figure was < 70%; with `COc1ccc(C2=NCCN2)cc1-c1cn(-c2cccc(C3=NCCN3)c2)nn1`, < 70%.

For the compound `CCNC(=O)c1nn(CC2CC2)c2c1CN(C(=O)c1cc(-c3ccccc3F)n[nH]1)CC2`, the “growth inhibition at single dose” value was < 70%. Under `Cc1c(C)n(CCCO)c2ncn3nc(-c4ccccc4)nc3c12` stands < 70%.

As for `COc1ccc(N2CCN(C(CNC(=O)C3CCCCC3)c3ccc4c(c3)OCO4)CC2)cc1` (configuration not stated), the “growth inhibition at single dose” value is < 70%. Under `Cc1ccc(C(=O)c2oc3ccc4c(C)cc(=O)oc4c3c2C)cc1` stands < 70%. As to `Cc1cc(C(=O)NCC#Cc2cccc(C(F)(F)F)c2)on1`, the “growth inhibition at single dose” value is < 70%. With `NCC(c1cccs1)S(=O)(=O)c1ccccc1` (configuration not stated) the figure was < 70%; with `CCOc1ccc(CN2CCN(CC(O)COc3ccc(OCC(O)CN4CCN(Cc5ccc(OCC)cc5)CC4)cc3)CC2)cc1` (configuration not stated), < 70%; with `Cc1ccc(NS(=O)(=O)c2ccc(C(=O)Nc3ncccc3O)cc2)cc1`, < 70%. Under `CCOc1ccc(Nc2ccnc3cc(Cl)ccc23)cc1` stands < 70%; under `c1coc(CNc2nc(N3CCCCC3)nc3ccccc23)c1`, < 70%. Under `CCc1ccc(C(NCc2nc(N)nc(N(C)C)n2)C(C)C)cc1` (configuration not stated) stands < 70%. As for `CC1CCN(Cc2ccc(NC(=O)c3cc4ccc5cccnc5c4[nH]3)cc2)CC1`, the “growth inhibition at single dose” value was < 70%.

Regarding `CCOC(=O)c1cnc2c(CC)cccc2c1O`, the “growth inhibition at single dose” value is < 70%. With `COc1ccccc1N1CCN(c2nc(=O)c3c([nH]2)CCC3)CC1` the figure was < 70%. In the case of `CCOc1ccc(-c2nc(CC(=O)NCc3ccnc(OC)c3)cs2)cc1`, the “growth inhibition at single dose” value is < 70%. With `O=C(Nc1ccc(N2CCCC2)cn1)c1cccc(F)c1` the figure was < 70%. In the case of `OC(CNC1CCCC1)Cn1c2ccccc2c2ccccc21` (configuration not stated), the “growth inhibition at single dose” value is < 70%. Under `COc1ccc(-c2nn(C(C)C)c3ncnc(N)c23)cc1OC` stands < 70%; under `COc1cccc(Nc2nc(-c3ccc(CCC(C)NC(C)=O)cc3)cs2)c1` (configuration not stated), < 70%; under `Cc1cc(N2CCN(C)CC2)n2ncc(-c3ccccc3Cl)c2n1`, < 70%. With `OCCNCc1cc(Br)ccc1OCc1ccc(F)cc1` the figure was < 70%. Under `Oc1ccc(Cl)cc1CNc1nc2ccccc2[nH]1` stands < 70%. For `CC(C)(C)c1cc(C(=O)N2CCN(c3nccnc3C#N)CC2)n(Cc2ccccc2)n1`, the “growth inhibition at single dose” value was < 70%. Under `CCOC(=O)c1c[nH]c2c(F)cc(F)cc2c1=O` stands < 70%. Under `CC(=O)NCC1CN(c2ccc(-c3ccc(CO)cc3)c(F)c2)C(=O)O1` (configuration not stated) stands < 70%; under `CN1CCCC1CCO[C@](C)(c1ccccc1)c1ccc(Cl)cc1` (some centres not stated), < 70%; under `CN1CCN(CCCOc2ncc(Nc3ncc(-c4ccc(C(F)(F)F)c(F)c4)nc3C(N)=O)cn2)CC1`, < 70%. Under `C[C@H](C(N)=O)N1CCCC[C@@H]1c1ccc(OCc2cccc(F)c2)cc1` stands < 70%; under `CC[n+]1ccccc1/C=C/c1ccc(N(C)C)cc1`, < 70%. Regarding `CC(C)(C)c1ccc(O)c(CNC2CCCCC2)c1`, the “growth inhibition at single dose” value is < 70%.

On to `CC1Cc2cc(C(=O)CSc3nnc(Cc4cccs4)n3C)ccc2N1S(C)(=O)=O` (configuration not stated), for which the “growth inhibition at single dose” value was < 70%. As to `CCCS(=O)(=O)c1cnc(C2COc3ccccc3O2)nc1N` (configuration not stated), the “growth inhibition at single dose” value is < 70%. Under `N#CCNC(=O)c1ccc(-c2ccnc(Nc3ccc(N4CCOCC4)cc3)n2)cc1` [Momelotinib] stands < 70%; under `O=C(Nc1cccc2c[nH]nc12)c1cnc(OCC(F)(F)F)c(Cl)c1`, < 70%. With `Cc1[nH]c(-c2ccc(F)cc2)cc1C(=O)NC1CCN(Cc2ccccc2)CC1` the figure was < 70%; with `O=C(Nc1ccc2c(c1)OC1(CCCCC1)O2)c1ccc[nH]c1=O`, < 70%.

Take `O=C(Nc1cnc2ccccc2c1)c1cccc(-n2cnnn2)c1`: the “growth inhibition at single dose” value is < 70%. Under `COc1ccc(C2C(C(=O)Nc3cccc(OC)c3)c3ccccc3C(=O)N2C2CCCCC2)cc1` (configuration not stated) stands < 70%; under `O=C(Nc1ccccc1O)c1ccc(Cn2ccnc2)cc1`, < 70%; under `COc1ccc(-c2csc3ncnc(NCC(=O)NC(C)C)c23)cc1`, < 70%. With `O=C(Nc1nc2ccc(OC(F)(F)F)cc2s1)c1cnccn1` the figure was < 70%. Under `COc1ccc(-c2nc(N3CCN(C(=O)C4CCCCC4)CC3)c3c4c(sc3n2)CCCC4)cc1` stands < 70%. For the compound `COCC(C)Nc1ncnc2scc(-c3ccc(OC)cc3)c12` (configuration not stated), the “growth inhibition at single dose” value is < 70%.

Turning to `CN(C)c1ccc(N2C(N)=NC(N)=NC2(C)C)cc1`, the “growth inhibition at single dose” value was < 70%. Under `COc1ccc2c(=O)c(C(=O)N(C)Cc3ccc(F)c(F)c3)c[nH]c2c1` stands < 70%. With `O=C(Cn1ncc(Cl)c(Cl)c1=O)NCC(=O)Nc1ccc(F)c(F)c1F` the figure was < 70%; with `COc1cccc(C=Cc2nc(=O)c3ccccc3o2)c1OC`, < 70%. Take `Nc1nn(C(=O)c2csc3ccccc23)c2ccccc12`: the “growth inhibition at single dose” value is < 70%.

Regarding `O=C(CC1Sc2ccccc2NC1=O)NCCCn1ccc2ccccc21` (configuration not stated), the “growth inhibition at single dose” value was < 70%. For `Nc1nnc(SCc2c(F)cccc2Cl)[nH]1`, the “growth inhibition at single dose” value was < 70%. Under `COc1cc2c(cc1OC)CN(C(=O)c1ccc(OCC(F)(F)F)nc1)CC2` stands < 70%; under `Cc1nn(-c2ccccc2)c(Oc2ccccc2)c1/C=C1\C(=O)Nc2ccccc21`, < 70%; under `CCN(CC)c1cc(C)c2cc(NC(=O)c3cccc(OC)c3)ccc2n1`, < 70%. With `N#C/C(C(=O)c1ccc([N+](=O)[O-])s1)=C1\Nc2ccccc2S1` the figure was < 70%; with `Cc1ccccc1-n1c(SCC(=O)NC2CCCCC2)nc(O)cc1=O`, < 70%. Under `CCCn1c(=O)n(CC(=O)Nc2ccc(C)c(C)c2)c(=O)c2c1nc(C(F)(F)F)n2CCOC` stands < 70%; under `O=C(O)c1c2c(nc3ccccc13)/C(=C/c1ccccc1Cl)CC2`, < 70%.
